Experiments:
[1] = refractive index (Na D-line) (dimensionless); xn = mol fraction of the nth substance listed; settings: 101 kPa, Liquid, Standard Abbe refractometry
[2] = relative permittivity at various frequencies (dimensionless); xn = mol fraction of the nth substance listed; settings: 101 kPa, Liquid, Frequency=1 MHz, Parallel plate capacitor

CCCCCCN [1-hexanamine] + CCCO
Settings	refractive index, 293.15 K	refractive index, 298.15 K	refractive index, 303.15 K	relative permittivity, 293.15 K	relative permittivity, 298.15 K	relative permittivity, 303.15 K
[1], x2 = 0	1.41808	1.41563	1.41321	–	–	–
[1], x2 = 0.052	1.41775	1.41529	1.41292	–	–	–
[1], x2 = 0.1015	1.41735	1.41492	1.41258	–	–	–
[1], x2 = 0.1475	1.41693	1.41452	1.41223	–	–	–
[1], x2 = 0.2108	1.41627	1.41393	1.4116	–	–	–
[1], x2 = 0.2983	1.41509	1.41276	1.41049	–	–	–
[1], x2 = 0.3967	1.41351	1.4112	1.40878	–	–	–
[1], x2 = 0.4998	1.41113	1.40876	1.40642	–	–	–
[1], x2 = 0.604	1.40784	1.40551	1.40323	–	–	–
[1], x2 = 0.6965	1.40408	1.40199	1.39964	–	–	–
[1], x2 = 0.8013	1.39877	1.39675	1.39454	–	–	–
[1], x2 = 0.8505	1.39588	1.39373	1.39168	–	–	–
[1], x2 = 0.8953	1.39295	1.39085	1.38884	–	–	–
[1], x2 = 0.9486	1.38914	1.38704	1.38505	–	–	–
[2], x2 = 0	–	–	–	3.964	3.904	3.846
[2], x2 = 0.0708	–	–	–	4.411	4.336	4.263
[2], x2 = 0.1073	–	–	–	4.663	4.578	4.499
[2], x2 = 0.147	–	–	–	4.953	4.857	4.77
[2], x2 = 0.1935	–	–	–	5.33	5.222	5.123
[2], x2 = 0.307	–	–	–	6.436	6.286	6.148
[2], x2 = 0.3941	–	–	–	7.471	7.279	7.102
[2], x2 = 0.5056	–	–	–	9.113	8.85	8.605
[2], x2 = 0.6097	–	–	–	10.99	10.649	10.324
[2], x2 = 0.6977	–	–	–	12.847	12.426	12.034
[2], x2 = 0.8044	–	–	–	15.469	14.948	14.463
[2], x2 = 0.8406	–	–	–	16.431	15.885	15.354
[2], x2 = 0.8989	–	–	–	18.08	17.478	16.902
[2], x2 = 0.9504	–	–	–	19.605	18.955	18.33
